Test results from patent publication US12059404B2, “Mesembrenol and/or mesembranol for prophylaxis and treatment of patients suffering from epilepsy and associated diseases” (HG&H Pharmaceuticals (Pty) Ltd, priority 2017, dated 2024).

Experiments:
[1] = system: AMPA mediated transmission; test: In vitro hippocampus slice population spike with Fluorowillardine alone or together with alkaloids; type: cell-based, rat; conditions: isolated alkaloids; mean of 3 slices; FIG. 7
Protocol: Four important alkaloids contained in Zembrin® namely, mesembrenone, mesembrenol, mesembrine and mesembranol, were individually isolated. Similar tests to those described in example A were carried out on each of these isolated alkaloids, in the presence of two concentrations in the nanomolar range and the results are illustrated in FIGS. 5 to 7. In FIG. 5, the statistical significance of p<0.01 is marked by stars. In FIG. 6, the statistical significance of p<0.01 is marked by stars. In FIG. 7, mean values of 3 slices are depicted for each recording condition. Statistical significance between Fluorowillardine alone and the presence of the alkaloids is documented by stars. (**=p<0.05; ***=p<0.01).

[2] = system: pyramidal cell activity in hippocampus slices; test: In vitro hippocampus slice population spike in presence of isolated alkaloids; type: cell-based, rat; conditions: for attenuation of population spike amplitude, single shock stimuli / attenuation of population spike amplitude, theta burst stimuli: two concentrations in the nanomolar range; for attenuation of population spike amplitude, single shock stimuli: FIG. 5; for attenuation of population spike amplitude, theta burst stimuli: FIG. 6
Text: Electric stimulation of Schaffer Collaterals leads to release of glutamate resulting in excitation of the postsynaptic pyramidal cells. The result of the electric stimulation can be recorded as so-called population spike (pop-spike). The amplitude of the resulting population spike represents the number of recruited pyramidal cells. The model of hippocampal pyramidal cell activity reflects the effects of physiological interventions by an increase or decrease of the amplitude of the population spike.
Hippocampus slices were obtained from 19 adult male Sprague-Dawlay rats (Charles River Wiga, Sulzbach, Germany). Rats were kept under a reversed day/night cycle for 2 weeks prior to the start of the experiments to allow recording of in vitro activity from slices during the active phase of their circadian rhythm (Dimpfel, W., Dalhoff, B., Hofmann, W., Schlüter, G. (1994) Electrically evoked potentials in the rat hippocampus slice in the presence of aminophylline alone and in combination with quinolones (European Neuropsychopharmacology, 4, 151-156).
Preparation of the slices was performed exactly as reported earlier (Dimpfel, W. and Hoffmann, J. A. (2011) Effects of rasagiline, its metabolite aminoindan and selegiline on glutamate receptor mediated signalling in the rat hippocampus slice in vitro (BMC Pharmacology, 11, 2)). Animals were exsanguinated under ether anaesthesia; the brain was removed in total and the hippocampal formation was isolated under microstereoscopic sight. The midsection of the hippocampus was fixed to the table of a vibrating microtome (Rhema Labortechnik, Hofheim, Germany) using a cyanoacrylate adhesive, submerged in chilled bicarbonate-buffered saline (artificial cerebrospinal fluid (ACSF): NaCl: 124 mM, KCl: 5 mM, CaCl2: 2 mM, MgSO4: 2 mM, NaHCO3: 26 mM, glucose: 10 mM, and cut into slices of 400μ thickness. All slices were pre-incubated for at least 1 h in Carbogen saturated ACSF (pH 7.4) in a pre-chamber before use (Dimpfel, W., Spüler, M., Dalhoff, A., Hoffmann, W., Schlüter, G. (1991) Hippocampal activity in the presence of quinolones and fenbufen in-vitro (Antimicrobial Agents and Chemotherapy, 35, 1142-1146).
During the experiment the slices were held and treated in a special superfusion chamber (List Electronics, Darmstadt, Germany) according to (Haas, H L., Schaerer, B., Vosmansky, M. (1979). A simple perfusion chamber for the study of nervous tissue slices in vitro (J Neurosci Methods, 1, 323-5), at 35° C. (Schiff, S J., Somjen, G G. (1985) The Effects of Temperature on Synaptic Transmission in Hippocampal Tissue Slices (Brain Research, 345, 279-284)). The preparation was superfused with ACSF at 180-230 ml/h. Electric stimulation (200 μA constant current pulses of 200 μs pulse width) of the Schaffer Collaterals within the […] area and recording of extracellular field potentials from the pyramidal cell layer of CA1 (Dimpfel, W., Spüler, M., Dalhoff, A., Hoffmann, W., Schlüter, G. (1991) Hippocampal activity in the presence of quinolones and fenbufen in-vitro (Antimicrobial Agents and Chemotherapy, 35, 1142-1146).
Measurements were performed at 10 min intervals to avoid potentiation mechanisms. Four stimulations—each 20 seconds apart—were averaged for each time point. After obtaining three stable responses to single stimuli (SS) long-term potentiation was induced by applying a theta burst type pattern (TBS). […]

With `COc1ccc(C23CCC(O)CC2N(C)CC3)cc1OC` (stereo not shown) [mesembranol] the “interaction with AMPA mediated transmission (population spike with Fluorowillardine alone or with alkaloid)” value [1] was “interact with AMPA mediated transmission”, the “attenuation of population spike amplitude, single shock stimuli” value [2] was “stronger attenuation” and the “attenuation of population spike amplitude, theta burst stimuli” value [2] was “stronger attenuation”.

`COc1ccc(C23C=CC(O)CC2N(C)CC3)cc1OC` (stereo not shown) [mesembrenol] was tested, and the “interaction with AMPA mediated transmission (population spike with Fluorowillardine alone or with alkaloid)” value [1] was “interact with AMPA mediated transmission”, the “attenuation of population spike amplitude, single shock stimuli” value [2] was “stronger attenuation” and the “attenuation of population spike amplitude, theta burst stimuli” value [2] was “stronger attenuation”.

With `COc1ccc([C@@]23CCC(=O)C[C@@H]2N(C)CC3)cc1OC` [mesembrine, reference compound] the “concentration exerting a similar extent of attenuation of population spike amplitude” value ([2]; FIGS. 5 and 6) was 8.65 nM.
